Structures are written as SMILES. Some results are limits rather than exact numbers.

Usually IC50 stands for the concentration that inhibits the measured activity by half. In general, half-life refers to the time needed for the level to fall by half in the phase considered.

The target of series [1] is Poly [ADP-ribose] polymerase 1 (Homo sapiens, UniProt P09874). The experiment in a line: Inhibition of PARP1 (unknown origin) incubated for 1 hr by ELISA.
Series [2] concerns the target Cyclin-dependent kinase 9 (Homo sapiens, UniProt P50750).
Description: Inhibition of CDK9 (unknown origin) using lipid substrate incubated for 40 mins in presence of ATP by kinase-Glo plus luminescence assay
The subject of the next series is MOLM-13. The experiment in a line: Antiproliferative activity against human MOLM-13 cells assessed as inhibition of cell proliferation incubated for 48 hrs by CCK-8 assay. Format: functional, cell-based. To be noted: MOLM-13, 48 h. On the technique in general: Formazan colour is commonly taken as a measure of viable cells.
A further series concerns MV4-11. The experiment in a line: Antiproliferative activity against human MV4-11 cells assessed as inhibition of cell proliferation incubated for 48 hrs by CCK-8 assay. Format: functional, cell-based. To be noted: MV4-11, 48 h.
Series [3] relates to MDA-MB-231. The experiment in a line: Induction of apoptosis in human MDA-MB-231 cells assessed as viable cell at 2 uM incubated for 24 hrs by Annexin V-FITC/PI staining based analysis (reference value: 96.3 %). The format is functional.
Series [4] has as its system MDA-MB-231. The experiment in a line: Induction of apoptosis in human MDA-MB-231 cells assessed as early apoptotic cell at 2 uM incubated for 24 hrs by Annexin V-FITC/PI staining based analysis (reference value: 0.96 %). The format is functional.
Series [5] relates to MDA-MB-231. The experiment in a line: Induction of apoptosis in human MDA-MB-231 cells assessed as late apoptotic cell at 2 uM incubated for 24 hrs by Annexin V-FITC/PI staining based analysis (reference value: 2.61 %). The format is functional.
Series [6] relates to MDA-MB-231. The experiment in a line: Induction of apoptosis in human MDA-MB-231 cells assessed as necrotic cell at 2 uM incubated for 24 hrs by Annexin V-FITC/PI staining based analysis (reference value: 0.10 %). Format: functional.
Series [7] concerns MDA-MB-231. The experiment in a line: Induction of cell cycle arrest in human MDA-MB-231 cells assessed as accumulation of cells at G1 phase at 2 uM incubated for 24 hrs by PI staining based flow cytometric analysis (reference value: 58.1%). Format: functional.
The subject of series [8] is MDA-MB-231. The experiment in a line: Induction of cell cycle arrest in human MDA-MB-231 cells assessed as accumulation of cells at S phase at 2 uM incubated for 24 hrs by PI staining based flow cytometric analysis (reference value: 29.2%). The format is functional. In general terms: In flow cytometry, cells or beads pass a laser one at a time.
In series [9] the test system is MDA-MB-231. The experiment in a line: Induction of cell cycle arrest in human MDA-MB-231 cells assessed as accumulation of cells at G2/M phase at 2 uM incubated for 24 hrs by PI staining based flow cytometric analysis (reference value: 11.3%). The format is functional.
Series [10] in a line: Metabolic stability in rat liver microsomes assessed as half life at 1 mg/ml incubated for 60 min in presence of NADPH by HPLC analysis. Format: ADME, Microsome. A general note: Microsomes from liver hold many membrane-bound enzymes, among them those of drug oxidation.
A short description of series [11]: Metabolic stability in artificial gastric fluid assessed as parent compound remaining at 1 mg/ml incubated for 8 hrs by HPLC analysis. Format: ADME. To be noted: read-out: Stability.
The nature of series [12]: Metabolic stability in artificial intestinal fluid assessed as parent compound remaining at 1 mg/ml incubated for 8 hrs by HPLC analysis. The format is ADME. To be noted: read-out: Stability.
Series [13] is described as follows: Metabolic stability in plasma assessed as parent compound remaining incubated for 3 hrs by HPLC analysis. The format is ADME, cell-free. To be noted: read-out: Stability.
The test system of a further series is HCT-116. The experiment in a line: cells. To be noted: Homo sapiens, HCT-116, 48 h.
A further series concerns MCF7. The experiment in a line: cells. To be noted: Homo sapiens, MCF7, 48 h.
The test system of series [14] is MDA-MB-231. The experiment in a line: cells. To be noted: Homo sapiens, MDA-MB-231, 48 h.
Description: Antiproliferative activity against human MDA-MB-231 cells assessed as inhibition of cell proliferation incubated for 48 hrs by CCK-8 assay

Sequence of Cyclin-dependent kinase 9 (P50750 whole entry): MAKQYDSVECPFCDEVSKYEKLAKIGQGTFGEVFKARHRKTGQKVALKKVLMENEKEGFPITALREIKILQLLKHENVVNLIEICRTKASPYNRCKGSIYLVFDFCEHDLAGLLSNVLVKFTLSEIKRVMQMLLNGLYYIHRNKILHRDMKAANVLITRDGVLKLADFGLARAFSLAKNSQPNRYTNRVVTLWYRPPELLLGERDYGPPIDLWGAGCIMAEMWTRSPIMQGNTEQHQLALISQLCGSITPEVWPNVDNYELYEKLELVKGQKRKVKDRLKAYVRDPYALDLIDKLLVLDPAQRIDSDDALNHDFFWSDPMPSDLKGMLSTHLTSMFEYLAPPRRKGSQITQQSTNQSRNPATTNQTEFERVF
Sequence of Poly [ADP-ribose] polymerase 1 (P09874 whole entry): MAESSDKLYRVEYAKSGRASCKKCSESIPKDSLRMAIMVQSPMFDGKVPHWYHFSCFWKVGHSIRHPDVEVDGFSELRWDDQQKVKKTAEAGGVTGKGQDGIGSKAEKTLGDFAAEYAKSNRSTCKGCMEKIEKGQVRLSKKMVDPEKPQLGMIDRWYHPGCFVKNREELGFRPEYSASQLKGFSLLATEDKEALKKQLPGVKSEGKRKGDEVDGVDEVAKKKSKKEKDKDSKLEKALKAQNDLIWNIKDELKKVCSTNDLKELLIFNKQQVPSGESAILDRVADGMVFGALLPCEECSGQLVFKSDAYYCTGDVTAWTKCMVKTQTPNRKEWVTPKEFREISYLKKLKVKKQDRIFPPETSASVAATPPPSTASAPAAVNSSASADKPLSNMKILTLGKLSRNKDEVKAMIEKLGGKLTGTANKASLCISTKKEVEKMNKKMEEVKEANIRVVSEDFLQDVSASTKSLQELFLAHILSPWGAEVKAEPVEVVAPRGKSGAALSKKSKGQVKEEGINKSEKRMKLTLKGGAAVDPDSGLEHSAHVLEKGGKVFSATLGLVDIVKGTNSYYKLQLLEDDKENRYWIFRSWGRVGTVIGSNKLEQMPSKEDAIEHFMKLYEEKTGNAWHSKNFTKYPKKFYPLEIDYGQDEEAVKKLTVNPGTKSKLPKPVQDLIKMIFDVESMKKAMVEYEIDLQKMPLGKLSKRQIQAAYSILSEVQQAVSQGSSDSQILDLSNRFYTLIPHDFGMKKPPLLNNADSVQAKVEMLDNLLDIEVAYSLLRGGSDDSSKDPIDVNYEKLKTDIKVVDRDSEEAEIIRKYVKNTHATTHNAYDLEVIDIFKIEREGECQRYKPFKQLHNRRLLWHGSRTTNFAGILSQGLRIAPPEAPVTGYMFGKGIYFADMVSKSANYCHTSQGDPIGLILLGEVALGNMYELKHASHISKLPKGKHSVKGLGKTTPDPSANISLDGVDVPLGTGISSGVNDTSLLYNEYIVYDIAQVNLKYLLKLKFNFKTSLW
Description for HCT-116: Antiproliferative activity against human HCT-116 cells assessed as inhibition of cell proliferation incubated for 48 hrs by CCK-8 assay
Description for MCF7: Antiproliferative activity against human MCF7 cells assessed as inhibition of cell proliferation incubated for 48 hrs by CCK-8 assay

`CCOc1cc(F)ccc1-c1cc(Nc2cc(CN3CCN(C(=O)c4cc(Cc5n[nH]c(=O)c6ccccc56)ccc4F)CC3)ccn2)ncc1F`: the IC50 in series [1] turned out to be 32 nM; in series [2], 59 nM.

For `COc1cccc(F)c1-c1cc(Nc2cc(CN3CCN(C(=O)c4cc(Cc5n[nH]c(=O)c6ccccc56)ccc4F)CC3)ccn2)ncc1F`, the IC50 in series [1] was determined as 16 nM; in [2], 61 nM.

`COc1ccc(F)cc1-c1cc(Nc2cc(CN3CCN(C(=O)c4cc(Cc5n[nH]c(=O)c6ccccc56)ccc4F)CC3)ccn2)ncc1F`: the IC50 in series [1] is 48 nM; in [2], 31 nM.

Turning to `O=C(c1cc(Cc2n[nH]c(=O)c3ccccc23)ccc1F)N1CCN(C(=O)C2CC2)CC1` [OLAPARIB], the IC50 is 43100 nM in the series on MOLM-13; 15200 nM with MV4-11; 200000 nM in the series on HCT-116; 195000 nM with MCF7; above 50000 nM in the series on MDA-MB-231 [14]. For the same compound, the Activity is listed as 96.8% in the series on MDA-MB-231 [3]; 0.59% with MDA-MB-231 [4]; 2.13% with MDA-MB-231 [5]; 0.48% in the series on MDA-MB-231 [6]; 48.7% in the series with MDA-MB-231 [7]; 35.8% with MDA-MB-231 [8]. Further, the Activity in the series with MDA-MB-231 [9] was 14.1%. Further, the half-life at 1 mg/ml in series [10] is 1.86 h. Moreover, the remaining at 8 h, 1 mg/ml in series [11] amounted to 99.4%; in [12], 100%. Moreover, the remaining at 3 h in series [13] is 99.4%.

Take `O=C(c1cc(Cc2n[nH]c(=O)c3ccccc23)ccc1F)N1CCN(Cc2ccnc(Nc3cc(-c4ccc(F)c5ccoc45)ncn3)c2)CC1`: the IC50 was 107 nM in series [1] and 118 nM in series [2].

In the case of `COc1ccc(-c2cc(Nc3cc(CN4CCN(C(=O)c5cc(Cc6n[nH]c(=O)c7ccccc67)ccc5F)CC4)ccn3)ncc2F)c(OC)c1`, the figures for the 50% inhibitory concentration (IC50) in series [1] and in series [2] were 30 nM and 31 nM, respectively.

Source of the values: ChEMBL document CHEMBL6114988, “Design, synthesis and biological evaluation of dual CDK9/PARP inhibitors for the treatment of cancer” (Eur J Med Chem, 2025).
